From ChEMBL document CHEMBL4342507, “Targeting YAP Degradation by a Novel 1,2,4-Oxadiazole Derivative via Restoration of the Function of the Hippo Pathway” (ACS Med Chem Lett, 2020)
The source made the active and inactive calls. No cut-off for these calls is given here.

Tests used:
[1] = biological target: T1, Serine/threonine-protein kinase LATS1 (Homo sapiens) (UniProt O95835); experiment: Activation of LATS1 in human SUM159 cells assessed as increase in YAP phosphorylation at Ser397 at 0.25 to 1.5 uM measured after 24 to 48 hrs by immunoblotting analysis; format: cell-based
T1 sequence (whole entry): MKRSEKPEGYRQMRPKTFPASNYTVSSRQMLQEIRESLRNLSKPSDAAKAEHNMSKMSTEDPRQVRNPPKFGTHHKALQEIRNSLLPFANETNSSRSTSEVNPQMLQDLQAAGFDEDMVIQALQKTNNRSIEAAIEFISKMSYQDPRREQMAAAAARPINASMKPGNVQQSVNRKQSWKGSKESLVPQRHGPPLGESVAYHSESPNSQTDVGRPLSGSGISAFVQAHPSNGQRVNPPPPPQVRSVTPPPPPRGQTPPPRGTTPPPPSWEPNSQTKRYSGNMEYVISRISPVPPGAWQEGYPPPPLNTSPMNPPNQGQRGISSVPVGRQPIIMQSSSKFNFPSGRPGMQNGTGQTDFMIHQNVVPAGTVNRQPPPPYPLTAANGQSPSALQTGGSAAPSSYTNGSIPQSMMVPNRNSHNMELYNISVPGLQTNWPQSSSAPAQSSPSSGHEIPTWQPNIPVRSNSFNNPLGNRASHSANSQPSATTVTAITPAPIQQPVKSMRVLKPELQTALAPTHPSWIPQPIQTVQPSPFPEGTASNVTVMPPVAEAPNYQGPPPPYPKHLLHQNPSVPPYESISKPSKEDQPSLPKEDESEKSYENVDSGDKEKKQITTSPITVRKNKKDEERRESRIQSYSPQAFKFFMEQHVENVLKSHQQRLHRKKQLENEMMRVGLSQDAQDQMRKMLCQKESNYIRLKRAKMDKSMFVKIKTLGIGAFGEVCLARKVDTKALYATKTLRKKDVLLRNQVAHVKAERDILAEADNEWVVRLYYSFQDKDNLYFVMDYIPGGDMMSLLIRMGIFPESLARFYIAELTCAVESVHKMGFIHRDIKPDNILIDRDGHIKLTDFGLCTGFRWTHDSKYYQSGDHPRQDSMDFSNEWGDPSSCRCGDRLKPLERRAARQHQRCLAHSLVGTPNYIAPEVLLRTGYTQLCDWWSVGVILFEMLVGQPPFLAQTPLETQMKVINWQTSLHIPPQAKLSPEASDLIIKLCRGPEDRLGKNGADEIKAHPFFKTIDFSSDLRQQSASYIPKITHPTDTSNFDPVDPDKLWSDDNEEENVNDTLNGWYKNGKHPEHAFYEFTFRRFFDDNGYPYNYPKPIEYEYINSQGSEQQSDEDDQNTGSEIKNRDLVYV

MDA-MB-231 [2] = experiment: Cytotoxicity against human MDA-MB-231 cells assessed as reduction in cell viability at 0.2 to 1.2 uM by MTT assay; format: functional, cell-based; details: TDE = time-dependent effect
[3] = biological target: T1, Serine/threonine-protein kinase LATS1 (Homo sapiens); experiment: Activation of LATS1 in human MDA-MB-231 cells assessed as induction of YAP degradation by measuring suppression of YAP protein expression at 0.5 uM pretreated with compound for 24 hrs followed by incubation with protein synthesis inhibitor, CHX up to 48 hrs by Western blot analysis; format: cell-based
MDA-MB-231 [4] = experiment: Activation of MOB in human MDA-MB-231 cells assessed as phosphorylation at Thr35 residue at 0.25 to 1.25 uM measured after 24 hrs by Western blot analysis; format: cell-based
[5] = Acute toxicity in athymic Nude-Foxn1nu BALB/c mouse xenografted with human MDA-MB-231 cells assessed as effect on serum ALT level at 200 mg/kg, po administered once daily via gavage for 14 days; format: organism-based; details: in vivo, 336 h
SUM-159-PT [6] = experiment: Cytotoxicity against human SUM159 cells assessed as reduction in cell viability at 0.2 to 1.2 uM by MTT assay; format: functional, cell-based; details: TDE = time-dependent effect
[7] = biological target: T1, Serine/threonine-protein kinase LATS1 (Homo sapiens); experiment: Activation of LATS1 in human PC9 cells assessed as increase in YAP phosphorylation at Ser397 at 0.25 to 1.5 uM measured after 12 to 24 hrs by immunoblotting analysis; format: cell-based
MDA-MB-231 [8] = experiment: Downregulation of TAZ protein expression in human MDA-MB-231 cells at 0.25 to 1.5 uM measured after 24 to 48 hrs by immunoblotting analysis; format: functional, cell-based
MDA-MB-231 [9] = experiment: Cytotoxicity against human MDA-MB-231 cells ectopically overexpressed with wild type FLAG-tagged YAP assessed as reduction in cell viability at 0.2 to 1.2 uM measured after 72 hrs by MTT assay; format: functional, cell-based
Homo sapiens = species on record: Homo sapiens; experiment: Activation of MOB in human SUM159 cells assessed as phosphorylation at Thr35 residue at 0.25 to 1.25 uM measured after 12 hrs by Western blot analysis; format: cell-based
SUM-159-PT [10] = experiment: Effect on MST1 expression in human SUM159 cells at 0.25 to 1.5 uM measured after 12 hrs by Western blot analysis; format: functional, cell-based
[11] = biological target: T1, Serine/threonine-protein kinase LATS1 (Homo sapiens); experiment: Activation of LATS1 in human PC3 cells assessed as increase in YAP phosphorylation at Ser397 at 0.25 to 1.5 uM measured after 12 to 24 hrs by immunoblotting analysis; format: cell-based
Mus musculus = experiment: Downregulation of YAP protein expression in tumor of athymic Nude-Foxn1nu BALB/c mouse xenografted with human MDA-MB-231 cells at 200 mg/kg, po administered once daily via gavage for 40 days by immunoblotting analysis; format: functional, organism-based
PC-3 [12] = experiment: Effect on MST2 expression in human PC3 cells at 0.25 to 1.5 uM measured after 24 hrs by Western blot analysis; format: functional, cell-based
[13] = biological target: T1, Serine/threonine-protein kinase LATS1 (Homo sapiens); experiment: Activation of LATS1 in triple-negative human SUM159 cells assessed as induction of YAP degradation by measuring suppression of YAP protein expression at 0.25 to 1 uM measured after 12 hrs by Western blot analysis
[14] = biological target: T1, Serine/threonine-protein kinase LATS1 (Homo sapiens); experiment: Activation of LATS1 in human PC3 cells assessed as increase in phosphorylation at Ser909 residue measured after 24 hrs by Western blot analysis; format: cell-based
[15] = Acute toxicity in athymic Nude-Foxn1nu BALB/c mouse xenografted with human MDA-MB-231 cells assessed as effect on serum total bilirubin level at 200 mg/kg, po administered once daily via gavage for 14 days; format: organism-based; details: in vivo, 336 h
PC-3 [16] = experiment: Effect on MOB expression in human PC3 cells at 0.25 to 1.5 uM measured after 24 hrs by Western blot analysis; format: functional, cell-based
[17] = Acute toxicity in athymic Nude-Foxn1nu BALB/c mouse xenografted with human MDA-MB-231 cells assessed as effect on body weight at 200 mg/kg, po administered once daily via gavage for 40 days and measured twice a week during treatment period; format: organism-based; details: in vivo, 960 h
PC-3 [18] = experiment: Cytotoxicity against human PC3 cells assessed as reduction in cell viability at 0.2 to 1.2 uM by MTT assay; format: functional, cell-based; details: TDE = time-dependent effect
MDA-MB-231 [19] = experiment: Antitumor activity against human MDA-MB-231 cells xenografted in athymic Nude-Foxn1nu BALB/c mouse assessed as tumor growth suppression at 200 mg/kg, po administered once daily via gavage for 40 days and measured twice a week during treatment period by caliper method relative to control; format: functional; details: MDA-MB-231, po, 960 h

Which results are given for `CC(=O)Nc1ccc(NC(=O)Nc2cccc(-c3nc(-c4ccc(NC(=O)c5cccnc5)cc4Cl)no3)c2)cc1C(F)(F)F`?
Activity [1]: inactive; Activity (MDA-MB-231 [2]): Tde; Activity [3]: Active; Activity (MDA-MB-231 [4]): Active; Activity [5]: Non-Toxic; Activity (SUM-159-PT [6]): Tde; Activity [7]: Active; inhibition (MDA-MB-231 [8]): Active; Activity (MDA-MB-231 [9]): inactive; Activity (Homo sapiens): inactive; Activity (SUM-159-PT [10]): inactive; Activity [11]: Active; inhibition (Mus musculus): Active; Activity (PC-3 [12]): inactive; Activity [13]: Active; Activity [14]: Dose-dependent effect; Activity [15]: Non-Toxic; Activity (PC-3 [16]): inactive; Activity [17]: Non-Toxic; Activity (PC-3 [18]): Tde; inhibition in vivo at 200 mg/kg (MDA-MB-231 [19]): 65%
